# Patent US20100152434A1, “Protein Kinase-binding Nucleosides and Associated Methods” (priority 2007, published 2010)
# Like-named read-outs stand apart in the source and are kept apart here.
# Columns and labels:
# HOP-62 = details: HOP-62
# OVCAR-4 [1] = tested on: OVCAR-4
# 788-0 = details: 788-0
# ACHN [2] = tested on: ACHN
# RXF 393 = details: RXF 393
# RPMI-8226 = experiment: cells; details: Homo sapiens, RPMI-8226, 48 h
# NCI-H522 = experiment: cells; details: Homo sapiens, NCI-H522, 48 h
# COLO 205 = experiment: cells; details: Homo sapiens, COLO 205, 48 h
# HCT-116 = experiment: cells; details: Homo sapiens, HCT-116, 48 h
# KM12 = experiment: cells; details: Homo sapiens, KM12, 48 h
# OVCAR-4 [3] = experiment: cells; details: Homo sapiens, OVCAR-4, 48 h
# OVCAR-5 = experiment: cells; details: Homo sapiens, OVCAR-5, 48 h
# SK-OV-3 = experiment: cells; details: Homo sapiens, SK-OV-3, 48 h
# A498 = experiment: cells; details: Homo sapiens, A498, 48 h
# ACHN [4] = experiment: cells; details: Homo sapiens, 48 h
# CAKI-1 = experiment: cells; details: Homo sapiens, CAKI-1, 48 h
# T-47D = experiment: cells; details: Homo sapiens, T47D, 48 h
# [5] = Log10 Concentration −4.0, Molar
# [6] = Log10 Concentration −5.0, Molar
# [7] = Log10 Concentration −6.0, Molar
# [8] = Log10 Concentration −7.0, Molar
# [9] = Log10 Concentration −8.0, Molar
compound,measurement,setting,value
CCOC(=O)C[C@@H]1C(O[Si](C)(C)C(C)(C)C)[C@H](n2cnc3c(NC(=O)Nc4ccccc4)ncnc32)O[C@@H]1CNC(=O)NC (stereo partly drawn) [Compound 10],TGI,CCRF-CEM; 48 h,8.86E−5 Molar
same,Percent Growth,CCRF-CEM; [5],−2%
same,Percent Growth,CCRF-CEM; [6],41%
same,Percent Growth,CCRF-CEM; [7],92%
same,Percent Growth,CCRF-CEM; [8],100%
same,Percent Growth,CCRF-CEM; [9],96%
same,TGI,EKVX; 48 h,>1.00E−4 Molar
same,Percent Growth,EKVX; [5],42%
same,Percent Growth,EKVX; [6],53%
same,Percent Growth,EKVX; [7],91%
same,Percent Growth,EKVX; [8],90%
same,Percent Growth,EKVX; [9],92%
same,TGI,HOP-62; 48 h,2.64E−5 Molar
same,Percent Growth,HOP-62; [5],−65%
same,Percent Growth,HOP-62; [6],48%
same,Percent Growth,HOP-62; [7],97%
same,Percent Growth,HOP-62; [8],92%
same,Percent Growth,HOP-62; [9],99%
same,TGI,NCI-H460; 48 h,2.50E−5 Molar
same,Percent Growth,NCI-H460; [5],−49%
same,Percent Growth,NCI-H460; [6],32%
same,Percent Growth,NCI-H460; [7],101%
same,Percent Growth,NCI-H460; [8],102%
same,Percent Growth,NCI-H460; [9],102%
same,TGI,SF-539; 48 h,>1.00E−4 Molar
same,Percent Growth,SF-539; [5],17%
same,Percent Growth,SF-539; [6],29%
same,Percent Growth,SF-539; [7],103%
same,Percent Growth,SF-539; [8],91%
same,Percent Growth,SF-539; [9],97%
same,TGI,LOX IMVI; 48 h,>1.00E−4 Molar
same,Percent Growth,LOX IMVI; [5],4%
same,Percent Growth,LOX IMVI; [6],35%
same,Percent Growth,LOX IMVI; [7],93%
same,Percent Growth,LOX IMVI; [8],97%
same,Percent Growth,LOX IMVI; [9],97%
same,TGI,M14; 48 h,1.16E−5 Molar
same,Percent Growth,M14; [5],−56%
same,Percent Growth,M14; [6],4%
same,Percent Growth,M14; [7],81%
same,Percent Growth,M14; [8],82%
same,Percent Growth,M14; [9],90%
same,TGI,IGROV1; 48 h,1.80E−5 Molar
same,Percent Growth,IGROV1; [5],−58%
same,Percent Growth,IGROV1; [6],20%
same,Percent Growth,IGROV1; [7],93%
same,Percent Growth,IGROV1; [8],94%
same,Percent Growth,IGROV1; [9],94%
same,TGI,OVCAR-4 [1]; 48 h,>1.00E−4 Molar
same,Percent Growth,OVCAR-4 [1]; [5],16%
same,Percent Growth,OVCAR-4 [1]; [6],53%
same,Percent Growth,OVCAR-4 [1]; [7],95%
same,Percent Growth,OVCAR-4 [1]; [8],103%
same,Percent Growth,OVCAR-4 [1]; [9],98%
same,TGI,788-0; 48 h,5.21E−8 Molar
same,Percent Growth,788-0; [5],−97%
same,Percent Growth,788-0; [6],−34%
same,Percent Growth,788-0; [7],86%
same,Percent Growth,788-0; [8],83%
same,Percent Growth,788-0; [9],92%
same,TGI,ACHN [2]; 48 h,>1.00E−4 Molar
same,Percent Growth,ACHN [2]; [5],35%
same,Percent Growth,ACHN [2]; [6],47%
same,Percent Growth,ACHN [2]; [7],96%
same,Percent Growth,ACHN [2]; [8],97%
same,Percent Growth,ACHN [2]; [9],107%
same,TGI,RXF 393; 48 h,4.63E−6 Molar
same,Percent Growth,RXF 393; [5],−59%
same,Percent Growth,RXF 393; [6],−46%
same,Percent Growth,RXF 393; [7],92%
same,Percent Growth,RXF 393; [8],97%
same,Percent Growth,RXF 393; [9],99%
same,TGI,DU-145; 48 h,1.94E−5 Molar
same,Percent Growth,DU-145; [5],−59%
same,Percent Growth,DU-145; [6],24%
same,Percent Growth,DU-145; [7],110%
same,Percent Growth,DU-145; [8],123%
same,Percent Growth,DU-145; [9],110%
same,TGI,MCF7; 48 h,4.51E−5 Molar
same,Percent Growth,MCF7; [5],−8%
same,Percent Growth,MCF7; [6],16%
same,Percent Growth,MCF7; [7],89%
same,Percent Growth,MCF7; [8],91%
same,Percent Growth,MCF7; [9],96%
same,GI50,RPMI-8226,1.09 µM
same,CC50,RPMI-8226; read-out: LC50,59 µM
same,GI50,NCI-H522,4.36 µM
same,CC50,NCI-H522; read-out: LC50,> 100 µM
same,GI50,COLO 205,3.84 µM
same,CC50,COLO 205; read-out: LC50,> 100 µM
same,GI50,HCT-116,3.2 µM
same,CC50,HCT-116; read-out: LC50,45.6 µM
same,GI50,KM12,3.95 µM
same,CC50,KM12; read-out: LC50,> 100 µM
same,GI50,OVCAR-4 [3],12.3 µM
same,CC50,OVCAR-4 [3]; read-out: LC50,> 100 µM
same,GI50,OVCAR-5,31.1 µM
same,CC50,OVCAR-5; read-out: LC50,> 100 µM
same,GI50,SK-OV-3,21 µM
same,CC50,SK-OV-3; read-out: LC50,> 100 µM
same,GI50,A498,3.34 µM
same,CC50,A498; read-out: LC50,> 100 µM
same,GI50,ACHN [4],8.55 µM
same,CC50,ACHN [4]; read-out: LC50,> 100 µM
same,GI50,CAKI-1,29.7 µM
same,CC50,CAKI-1; read-out: LC50,> 100 µM
same,GI50,T-47D,2.55 µM
same,CC50,T-47D; read-out: LC50,> 100 µM
